According to US7820623B2 (priority 2006, dated 2010):
Bridge positions count the residues as written; N and C are the ends. Square brackets hold non-standard residues; d marks the D form. Ends that are not written are not given here. Peptide text beside a SMILES is read from it. 1Nal = N[C@@H](Cc1cccc2ccccc12)C(=O)O

B1: FcLoop-L2-OsK1-L2: OsK1 inserted into the human IgG1 Fc-loop domain with 2-Gly linkers on either side (protein)
chain: MDKTHTCPPCPAPELLGGPSVFLFPPKPKDTLMISRTPEVTCVVVDVSHEDPEVKFNWYVDGVEVHNAKTKPREEQYNSTYRVVSVLTVLHQDWLNGKEYKCKVSNKALPAPIEKTISKAKGQPREPQVYTLPPSRDELGGGVIINVKCKISRQCLEPCKKAGMRFGKCMNGKCHCTPKGGTKNQVSLTCLVKGFYPSDIAVEWESNGQPENNYKTTPPVLDSDGSFFLYSKLTVDKSRWQQGNVFSCSVMHEALHNHYTQKSLSLSPGK
modifications: Definition of Artificial Sequence: Synthetic protein
B2: FcLoop-L2-ShK-L2: ShK inserted into the human IgG1 Fc-loop domain with 2-Gly linkers (protein)
chain: MDKTHTCPPCPAPELLGGPSVFLFPPKPKDTLMISRTPEVTCVVVDVSHEDPEVKFNWYVDGVEVHNAKTKPREEQYNSTYRVVSVLTVLHQDWLNGKEYKCKVSNKALPAPIEKTISKAKGQPREPQVYTLPPSRDELGGRSCIDTIPKSRCTAFQCKHSMKYRLSFCRKTCGTCGGTKNQVSLTCLVKGFYPSDIAVEWESNGQPENNYKTTPPVLDSDGSFFLYSKLTVDKSRWQQGNVFSCSVMHEALHNHYTQKSLSLSPGK
modifications: Definition of Artificial Sequence: Synthetic protein

Tests used:
[1] = test system: thapsigargin-induced IL-2 production in human whole blood; settings: for IC50: read-out: Analogue Activity (IC50) WB/IL-2
[2] = test system: thapsigargin-induced IFN-g production in human whole blood; format: cell-based; settings: read-out: Analogue Activity (IC50) WB/IFNg

Molecule	IC50 [1] [pM]	IC50 [2] [pM]	blockade of the whole blood cytokine response, IL-2 and IFNg [1]
CC[C@H](C)[C@@H]1NC(=O)[C@H](CCCCN)NC(=O)[C@@H](NC(=O)[C@H](CCCCN)NC(=O)[C@@H](NC(=O)[C@H](CC(N)=O)NC(=O)[C@@H](NC(=O)[C@@H](NC(=O)[C@@H](NC(=O)CN)C(C)C)[C@@H](C)CC)[C@@H](C)CC)C(C)C)CSSC[C@@H]2NC(=O)[C@H](CCCCN)NC(=O)CNC(=O)[C@H](Cc3ccccc3)NC(=O)[C@H](CCCNC(=N)N)NC(=O)[C@H](CCSC)NC(=O)CNC(=O)[C@H](CCC(=O)O)NC(=O)[C@H](CCCCN)NC(=O)[C@H](CCCCN)NC(=O)[C@@H]3CSSC[C@@H](C(=O)N[C@H](C(=O)N4CCC[C@H]4C(=O)N[C@@H](CCCCN)C(=O)O)[C@@H](C)O)NC(=O)[C@H](Cc4c[nH]cn4)NC(=O)[C@H](CSSC[C@H](NC(=O)[C@H](CCC(N)=O)NC(=O)[C@H](CCCNC(=N)N)NC(=O)[C@H](CO)NC1=O)C(=O)N[C@@H](CC(C)C)C(=O)N[C@@H](CCC(=O)O)C(=O)N1CCC[C@H]1C(=O)N3)NC(=O)[C@H](CCCCN)NC(=O)CNC(=O)[C@H](CC(N)=O)NC(=O)[C@H](CCSC)NC2=O [A21E] (H-GVIINVKCKISRQCLEPCKKEGMRFGKCMNGKCHCTPK-OH; disulfide 8-28, 14-33, 18-35)	117	138	–
CC[C@H](C)[C@@H]1NC(=O)[C@H](CCCCN)NC(=O)[C@@H](NC(=O)[C@H](CCCCN)NC(=O)[C@@H](NC(=O)[C@H](CC(N)=O)NC(=O)[C@@H](NC(=O)[C@@H](NC(=O)[C@@H](NC(=O)CN)C(C)C)[C@@H](C)CC)[C@@H](C)CC)C(C)C)CSSC[C@@H]2NC(=O)[C@H](CCCCN)NC(=O)CNC(=O)[C@H](Cc3ccccc3)NC(=O)[C@H](CCCNC(=N)N)NC(=O)[C@H](CCSC)NC(=O)CNC(=O)[C@H](CCCNC(=N)N)NC(=O)[C@H](CCCCN)NC(=O)[C@H](CCCCN)NC(=O)[C@@H]3CSSC[C@@H](C(=O)N[C@H](C(=O)N4CCC[C@H]4C(=O)N[C@@H](CCCCN)C(=O)O)[C@@H](C)O)NC(=O)[C@H](Cc4c[nH]cn4)NC(=O)[C@H](CSSC[C@H](NC(=O)[C@H](CCC(N)=O)NC(=O)[C@H](CCCNC(=N)N)NC(=O)[C@H](CO)NC1=O)C(=O)N[C@@H](CC(C)C)C(=O)N[C@@H](CCC(=O)O)C(=O)N1CCC[C@H]1C(=O)N3)NC(=O)[C@H](CCCCN)NC(=O)CNC(=O)[C@H](CC(N)=O)NC(=O)[C@H](CCSC)NC2=O [A21R] (H-GVIINVKCKISRQCLEPCKKRGMRFGKCMNGKCHCTPK-OH; disulfide 8-28, 14-33, 18-35)	90	149	–
CC[C@H](C)[C@@H]1NC(=O)[C@H](CCCCN)NC(=O)[C@@H](NC(=O)[C@H](CCCCN)NC(=O)[C@@H](NC(=O)[C@H](CC(N)=O)NC(=O)[C@@H](NC(=O)[C@@H](NC(=O)[C@@H](NC(=O)CN)C(C)C)[C@@H](C)CC)[C@@H](C)CC)C(C)C)CSSC[C@@H]2NC(=O)[C@H](CCCCN)NC(=O)CNC(=O)[C@H](Cc3ccccc3)NC(=O)[C@H](CCCNC(=N)N)NC(=O)[C@H](CCSC)NC(=O)CNC(=O)[C@H](C)NC(=O)[C@H](CCCCN)NC(=O)[C@H](CCCCN)NC(=O)[C@@H]3CSSC[C@@H](C(=O)N[C@H](C(=O)N4CCC[C@H]4C(=O)N[C@@H](CCCCN)C(=O)O)[C@@H](C)O)NC(=O)[C@H](Cc4c[nH]cn4)NC(=O)[C@H](CSSC[C@H](NC(=O)[C@H](CCC(N)=O)NC(=O)[C@H](CCCNC(=N)N)NC(=O)[C@H](CO)NC1=O)C(=O)N[C@@H](CC(C)C)C(=O)N[C@@H](C)C(=O)N1CCC[C@H]1C(=O)N3)NC(=O)[C@H](CCCCN)NC(=O)CNC(=O)[C@H](CC(N)=O)NC(=O)[C@H](CCSC)NC2=O [E16A] (H-GVIINVKCKISRQCLAPCKKAGMRFGKCMNGKCHCTPK-OH; disulfide 8-28, 14-33, 18-35)	101	101	–
CC[C@H](C)[C@@H]1NC(=O)[C@H](CCCCN)NC(=O)[C@@H](NC(=O)[C@H](CCCCN)NC(=O)[C@@H](NC(=O)[C@H](CC(N)=O)NC(=O)[C@@H](NC(=O)[C@@H](NC(=O)[C@@H](NC(=O)CN)C(C)C)[C@@H](C)CC)[C@@H](C)CC)C(C)C)CSSC[C@@H]2NC(=O)[C@H](CCCCN)NC(=O)CNC(=O)[C@H](Cc3ccccc3)NC(=O)[C@H](CCCNC(=N)N)NC(=O)[C@H](CCSC)NC(=O)CNC(=O)[C@H](C)NC(=O)[C@H](CCCCN)NC(=O)[C@H](CCCCN)NC(=O)[C@@H]3CSSC[C@@H](C(=O)N[C@H](C(=O)N4CCC[C@H]4C(=O)N[C@@H](CCCCN)C(=O)O)[C@@H](C)O)NC(=O)[C@H](Cc4c[nH]cn4)NC(=O)[C@H](CSSC[C@H](NC(=O)[C@H](CCC(N)=O)NC(=O)[C@H](CCCNC(=N)N)NC(=O)[C@H](CO)NC1=O)C(=O)N[C@@H](CC(C)C)C(=O)N[C@@H](Cc1cccc4ccccc14)C(=O)N1CCC[C@H]1C(=O)N3)NC(=O)[C@H](CCCCN)NC(=O)CNC(=O)[C@H](CC(N)=O)NC(=O)[C@H](CCSC)NC2=O [E16Nal] (H-GVIINVKCKISRQCL[1Nal]PCKKAGMRFGKCMNGKCHCTPK-OH; disulfide 8-28, 14-33, 18-35)	1020	1510	–
CC[C@H](C)[C@@H]1NC(=O)[C@H](CCCCN)NC(=O)[C@@H](NC(=O)[C@H](CCCCN)NC(=O)[C@@H](NC(=O)[C@H](CC(N)=O)NC(=O)[C@@H](NC(=O)[C@@H](NC(=O)[C@@H](NC(=O)CN)C(C)C)[C@@H](C)CC)[C@@H](C)CC)C(C)C)CSSC[C@@H]2NC(=O)[C@H](CCCCN)NC(=O)CNC(=O)[C@H](Cc3ccccc3)NC(=O)[C@H](CCCNC(=N)N)NC(=O)[C@H](CCSC)NC(=O)CNC(=O)[C@H](C)NC(=O)[C@H](CCCCN)NC(=O)[C@H](CCCCN)NC(=O)[C@@H]3CSSC[C@@H](C(=O)N[C@H](C(=O)N4CCC[C@H]4C(=O)N[C@@H](CCCCN)C(=O)O)[C@@H](C)O)NC(=O)[C@H](Cc4c[nH]cn4)NC(=O)[C@H](CSSC[C@H](NC(=O)[C@H](CCC(N)=O)NC(=O)[C@H](CCCNC(=N)N)NC(=O)[C@H](CO)NC1=O)C(=O)N[C@@H](CC(C)C)C(=O)N[C@@H](CCCNC(=N)N)C(=O)N1CCC[C@H]1C(=O)N3)NC(=O)[C@H](CCCCN)NC(=O)CNC(=O)[C@H](CC(N)=O)NC(=O)[C@H](CCSC)NC2=O [E16R] (H-GVIINVKCKISRQCLRPCKKAGMRFGKCMNGKCHCTPK-OH; disulfide 8-28, 14-33, 18-35)	556	454	–
CC[C@H](C)[C@@H]1NC(=O)[C@H](CCCCN)NC(=O)[C@@H](NC(=O)[C@H](CCCCN)NC(=O)[C@@H](NC(=O)[C@H](CC(N)=O)NC(=O)[C@@H](NC(=O)[C@@H](NC(=O)[C@@H](NC(=O)CN)C(C)C)[C@@H](C)CC)[C@@H](C)CC)C(C)C)CSSC[C@@H]2NC(=O)[C@H](CCCCN)NC(=O)CNC(=O)[C@H](C)NC(=O)[C@H](CCCNC(=N)N)NC(=O)[C@H](CCSC)NC(=O)CNC(=O)[C@H](C)NC(=O)[C@H](CCCCN)NC(=O)[C@H](CCCCN)NC(=O)[C@@H]3CSSC[C@@H](C(=O)N[C@H](C(=O)N4CCC[C@H]4C(=O)N[C@@H](CCCCN)C(=O)O)[C@@H](C)O)NC(=O)[C@H](Cc4c[nH]cn4)NC(=O)[C@H](CSSC[C@H](NC(=O)[C@H](CCC(N)=O)NC(=O)[C@H](CCCNC(=N)N)NC(=O)[C@H](CO)NC1=O)C(=O)N[C@@H](CC(C)C)C(=O)N[C@@H](CCC(=O)O)C(=O)N1CCC[C@H]1C(=O)N3)NC(=O)[C@H](CCCCN)NC(=O)CNC(=O)[C@H](CC(N)=O)NC(=O)[C@H](CCSC)NC2=O [F25A] (H-GVIINVKCKISRQCLEPCKKAGMRAGKCMNGKCHCTPK-OH; disulfide 8-28, 14-33, 18-35)	3080	3080	–
CC[C@H](C)[C@@H]1NC(=O)[C@H](CCCCN)NC(=O)[C@@H](NC(=O)[C@H](CCCCN)NC(=O)[C@@H](NC(=O)[C@H](CC(N)=O)NC(=O)[C@@H](NC(=O)[C@@H](NC(=O)[C@@H](NC(=O)CN)C(C)C)[C@@H](C)CC)[C@@H](C)CC)C(C)C)CSSC[C@@H]2NC(=O)[C@H](CCCCN)NC(=O)CNC(=O)[C@H](Cc3ccccc3)NC(=O)[C@H](CCCNC(=N)N)NC(=O)[C@H](CCSC)NC(=O)CNC(=O)[C@H](C)NC(=O)[C@H](CCCCN)NC(=O)[C@H](CCCCN)NC(=O)[C@@H]3CSSC[C@@H](C(=O)N[C@H](C(=O)N4CCC[C@H]4C(=O)N[C@@H](CCCCN)C(=O)O)[C@@H](C)O)NC(=O)[C@H](Cc4c[nH]cn4)NC(=O)[C@H](CSSC[C@H](NC(=O)[C@H](Cc4cccc5ccccc45)NC(=O)[C@H](CCCNC(=N)N)NC(=O)[C@H](CO)NC1=O)C(=O)N[C@@H](CC(C)C)C(=O)N[C@@H](CCC(=O)O)C(=O)N1CCC[C@H]1C(=O)N3)NC(=O)[C@H](CCCCN)NC(=O)CNC(=O)[C@H](CC(N)=O)NC(=O)[C@H](CCSC)NC2=O [Q13Nal] (H-GVIINVKCKISR[1Nal]CLEPCKKAGMRFGKCMNGKCHCTPK-OH; disulfide 8-28, 14-33, 18-35)	140	–	–
SEQ ID No: 4989: OSK1 analog without beta strand 1 (labeled des 1-7), Table 42 (CKISRQCLKPCKDAGMRFGKCMNGKCHC-NH2; ends and bridges not checked)	–	–	retain activity in blocking inflammation
B1	–	–	potent blockade
B2	–	–	potent blockade
